Data from patent US10479793B2, “Imidazopyridazine compounds useful as modulators of IL-12, IL-23 and/or IFN alpha responses” (BRISTOL-MYERS SQUIBB COMPANY, priority 2015, dated 2019).
Where two headings read alike, the source gives them in different places.

Tests used:
[1] = target: T1, recombinantly expressed His-tagged protein corresponding to amino acids 575-869 of human Tyk2 (Homo sapiens, UniProt P29597); assay: Probe displacement assay (scintillation proximity, tritiated probe); format: binding; conditions: His-tagged Tyk2 (575-869) 2.5 nM, 40 nM radiolabeled probe, 30 minutes at room temperature
T1 construct: made in house
T1 sequence (P29597 with tags, fused parts or gaps): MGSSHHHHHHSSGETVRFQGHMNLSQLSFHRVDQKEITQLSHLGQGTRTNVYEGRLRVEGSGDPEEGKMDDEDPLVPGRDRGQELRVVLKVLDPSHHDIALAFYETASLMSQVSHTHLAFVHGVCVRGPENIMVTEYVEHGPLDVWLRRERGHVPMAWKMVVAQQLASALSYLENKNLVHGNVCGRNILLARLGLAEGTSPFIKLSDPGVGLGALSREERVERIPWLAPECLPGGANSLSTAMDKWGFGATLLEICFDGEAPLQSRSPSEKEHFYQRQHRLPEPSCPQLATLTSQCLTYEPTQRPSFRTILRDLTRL
Description: The preparation of radiolabeled probe, (R)—N-(1-(3-(8-methyl-5-(methylamino)-8H-imidazo[4,5-d]thiazolo[5,4-b]pyridin-2-yl)phenyl)ethyl)-2-([^3H]methylsulfonyl)benzamide, was performed as described below: […]

[2] = test system: IL-23 stimulated Kit225 T cells with a stably-integrated STAT-dependent luciferase reporter; assay: Kit225 T cell assay, IL-23 stimulated STAT-dependent luciferase reporter; format: cell-based, human
Description: (§1) Kit225 T cells with a stably-integrated STAT-dependent luciferase reporter were plated in RPMI (GIBCO) containing 10% heat-inactivated FBS (GIBCO) and 100 U/mL PenStrep (GIBCO). The cells were then stimulated with either 20 ng/mL human recombinant IL-23 or 200 U/mL human recombinant IFNα (PBL InterferonSource) for 5-6 hours. Luciferase expression was measured using the STEADY-GLO Luciferase Assay System (PROMEGA) according to the manufacturer's instructions.

[3] = test system: IFNα stimulated Kit225 T cells with a stably-integrated STAT-dependent luciferase reporter; assay: Kit225 T cell assay, IFNα stimulated STAT-dependent luciferase reporter; format: cell-based, human
Description: as §1

[4] = KIT225, 20 ng/mL human recombinant IL-23, 5-6 hours, luciferase, read-out: IL-23 Kit225 Reporter, (IC50)
[5] = KIT225, 200 U/mL human recombinant IFNα, 5-6 hours, luciferase, read-out: IFNa Kit225 Reporter, (IC50)
[6] = Homo sapiens, KIT225, 20 ng/mL human recombinant IL-23, 5-6 hours, luciferase, read-out: IL-23 Kit225 Reporter, (IC50)
[7] = Homo sapiens, KIT225, 200 U/mL human recombinant IFNα, 5-6 hours, luciferase, read-out: IFNa Kit225 Reporter, (IC50)

| Structure (SMILES) | EC50 [1] [µM] | IC50 [2, 4] [µM] | IC50 [3, 5] [µM] | IC50 [2, 6] [µM] | IC50 [3, 7] [µM] | IC50 ([2]; Homo sapiens, KIT225, read-out: IL-23 Kit225 Reporter, (IC50, uM)) [µM] | IC50 ([3]; Homo sapiens, KIT225, read-out: IFNa Kit225 Reporter, (IC50, uM)) [µM] |
| --- | --- | --- | --- | --- | --- | --- | --- |
| CNc1cc(Nc2cccc(N3CCOC3=O)n2)nn2c(C(=O)NC3CC3)cnc12 [Example 87] | 0.00431 | 0.09 | 0.06 | – | – | – | – |
| CNc1cc(Nc2cccc(N3CCCC3=O)n2)nn2c(C(=O)NC3CC3)cnc12 [Example 88] | 0.00834 | 0.01 | 0.02 | – | – | – | – |
| CNc1cc(Nc2cccc(N3CCC(O)C3=O)n2)nn2c(C(=O)NC3CC3)cnc12 (stereo not drawn) [Example 90] | 0.0039 | 0.7 | 0.14 | – | – | – | – |
| CNc1cc(Nc2cccnc2-n2cccn2)nn2c(C(=O)NC3CC3)cnc12 [Example 92] | 0.03 | – | – | 0.4 | 0.21 | – | – |
| CNc1cc(Nc2cncc(C)c2)nn2c(C(=O)NC3CC3)cnc12 [Example 96] | 0.00718 | – | – | 0.51 | 0.6 | – | – |
| CNc1cc(Nc2cccnc2C)nn2c(C(=O)NC3CC3)cnc12 [Example 97] | 0.03 | – | – | 0.42 | 0.65 | – | – |
| CNc1cc(Nc2cccnc2-n2ccc(C)n2)nn2c(C(=O)NC3CC3)cnc12 [Example 101] | 0.27 | – | – | 7.19 | 5.79 | – | – |
| CCNC(=O)c1ncccc1Nc1cc(NC)c2ncc(C(=O)NC3CC3)n2n1 [Example 103] | 0.16 | – | – | – | – | 0.47 | 0.36 |

More lines, main results first:

| EC50 [1] [µM] | IC50 [2, 4] [µM] | IC50 [3, 5] [µM] | IC50 [2, 6] [µM] | IC50 [3, 7] [µM] | Structure (SMILES) | IC50 ([2]; Homo sapiens, KIT225, read-out: IL-23 Kit225 Reporter, (IC50, uM)) [µM] | IC50 ([3]; Homo sapiens, KIT225, read-out: IFNa Kit225 Reporter, (IC50, uM)) [µM] |
| --- | --- | --- | --- | --- | --- | --- | --- |
| 0.01 | 0.39 | 0.44 | – | – | CNc1cc(Nc2cccc(-n3ccc(C(F)(F)F)n3)n2)nn2c(C(=O)NC3CC3)cnc12 [Example 89] | – | – |
| 0.01 | – | – | 1.1 | 0.41 | CNc1cc(Nc2cncc(OC)c2)nn2c(C(=O)NC3CC3)cnc12 [Example 93] | – | – |
| 0.00137 | – | – | 0.02 | 0.03 | CNc1cc(Nc2cccnc2OC)nn2c(C(=O)NC3CC3)cnc12 [Example 94] | – | – |
| 0.02 | – | – | 0.37 | 0.27 | CNc1cc(Nc2cccnc2F)nn2c(C(=O)NC3CC3)cnc12 [Example 95] | – | – |
| 0.14 | 12.5 | 12.5 | – | – | CNc1cc(Nc2cccnc2-n2nc(C)cc2C(F)(F)F)nn2c(C(=O)NC3CC3)cnc12 [Example 100] | – | – |
| 0.00752 | 0.16 | 0.12 | – | – | O=C(NC1CC1)c1cnc2c(NCCN3CCOCC3)cc(Nc3cccc4c3OCCO4)nn12 [Example 110] | – | – |
| 0.0655 | 1.1 | 1.2 | – | – | CNc1cc(Nc2cccc(-c3ccc(C(F)(F)F)cc3F)c2)nn2c(C(=O)NC3CC3)cnc12 [Example 116] | – | – |
